From ChEMBL document CHEMBL1201862, “PubChem BioAssay data set” (2004)
Activity calls are given as the source filed them.

Tests used:
[1] = target: T1, Bcl-2-related protein A1 (Mus musculus, UniProt Q07440); assay: Bfl-1 inhibitors blocking BH3 peptide binding, confirmation, biochemical, TR-FRET, mouse Bfl-1 (AID 621);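 also: TR-FRET binding of GST-Bfl-1 to FITC-labelled Bid peptide via terbium antibody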
T1 sequence (Q07440 whole entry): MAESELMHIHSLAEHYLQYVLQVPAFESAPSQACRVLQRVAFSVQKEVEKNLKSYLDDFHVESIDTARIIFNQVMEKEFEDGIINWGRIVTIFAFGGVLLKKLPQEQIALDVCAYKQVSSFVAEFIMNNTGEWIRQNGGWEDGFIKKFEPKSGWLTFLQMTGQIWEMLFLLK

[2] = target: Glyceraldehyde-3-phosphate dehydrogenase (Homo sapiens, UniProt P04406)
[3] = target: T1, Bcl-2-related protein A1; assay: Bfl-1 binding inhibitors, SAR follow-up, biochemical, fluorescence polarization (AID 1070)
[4] = tested on: Streptococcus; assay: Group A Streptococcus viability loss, dose response, counter-screen for streptokinase expression inhibitor project, luminescence, BacTiterGlo (AID 1915); assay type: functional, organism-based;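 also: potency for reduction of bacterial viability or growth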
[5] = target: T2, Streptokinase A (Streptococcus pyogenes serotype M1, UniProt P10520); assay: S. pyogenes streptokinase expression inhibitors, potency, dose response, plasminogen activation absorbance, OD405 (AID 1914); assay type: functional, Streptococcus pyogenes M1 GAS;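 also: secreted streptokinase activity via plasminogen activation per viability signal from cell pellet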
T2 sequence (P10520 whole entry): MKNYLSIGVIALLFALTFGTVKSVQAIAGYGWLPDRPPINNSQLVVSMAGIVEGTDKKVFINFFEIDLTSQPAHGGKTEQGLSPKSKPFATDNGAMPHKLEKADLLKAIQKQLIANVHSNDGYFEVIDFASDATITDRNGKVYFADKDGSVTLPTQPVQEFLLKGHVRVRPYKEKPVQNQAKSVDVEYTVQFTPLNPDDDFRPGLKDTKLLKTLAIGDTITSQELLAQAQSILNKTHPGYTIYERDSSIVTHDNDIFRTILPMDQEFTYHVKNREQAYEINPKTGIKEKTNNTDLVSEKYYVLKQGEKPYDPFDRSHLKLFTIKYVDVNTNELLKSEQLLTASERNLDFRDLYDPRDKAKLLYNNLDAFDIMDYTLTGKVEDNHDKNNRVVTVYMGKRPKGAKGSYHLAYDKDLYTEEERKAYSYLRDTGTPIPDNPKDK

[6] = target: Aryl hydrocarbon receptor (Homo sapiens, UniProt P35869); assay: Luminescence-based cell-based high throughput dose response assay for activators of the Aryl Hydrocarbon Receptor (AHR). [Related pubchem assays: 2796 (Primary screen (AHR activators in singlicate)), 2845 (Confirmation screen (AHR activators in triplicate)), 434939 (Counterscreen (PXR activators in triplicate)), 2804 (Summary (AHR activators))]; assay type: ADME
[7] = tested on: Streptococcus sp. 'group A'; assay: growth inhibition of control SK(-) GAS strain, dose response, counter-screen for streptokinase expression inhibitor project, luminescence, kanamycin, BacTiterGlo, confirmation (AID 1900); assay type: functional, organism-based
[8] = target: T3, Zinc finger protein mex-5 (Caenorhabditis elegans, UniProt Q9XUB2); assay: MEX-5/TCR-2 RNA interaction inhibitors, dose response, biochemical, C. elegans, fluorescence polarization (AID 1960)
T3 sequence (Q9XUB2 whole entry): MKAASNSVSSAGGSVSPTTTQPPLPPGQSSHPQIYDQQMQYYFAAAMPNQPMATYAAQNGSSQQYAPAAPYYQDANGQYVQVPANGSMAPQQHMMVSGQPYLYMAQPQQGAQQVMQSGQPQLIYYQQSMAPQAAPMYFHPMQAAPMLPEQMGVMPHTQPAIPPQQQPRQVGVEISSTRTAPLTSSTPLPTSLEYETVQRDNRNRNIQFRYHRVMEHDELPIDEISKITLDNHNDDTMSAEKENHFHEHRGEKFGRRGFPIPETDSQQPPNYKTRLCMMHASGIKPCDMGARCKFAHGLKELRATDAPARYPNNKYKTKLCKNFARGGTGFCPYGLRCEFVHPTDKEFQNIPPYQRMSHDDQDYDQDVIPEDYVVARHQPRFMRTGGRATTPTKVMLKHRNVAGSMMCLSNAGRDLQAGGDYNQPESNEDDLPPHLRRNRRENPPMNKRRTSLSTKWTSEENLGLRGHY

[9] = target: T1, Bcl-2-related protein A1; assay: Bfl-1 inhibitors, primary screen, biochemical, fluorescence polarization, FITC-Bid, mouse (AID 432)
[10] = target: T4, RNA-binding protein pos-1 (Caenorhabditis elegans, UniProt G5EF15); assay: inhibitors of POS-1/mex-3 RNA binding, dose response, biochemical, fluorescence polarization (AID 1964);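 also: purified POS-1 fused to maltose binding protein made in E. coli; potency of compounds blocking POS-1 binding to fluorescent RNA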
T4 sequence (G5EF15 whole entry): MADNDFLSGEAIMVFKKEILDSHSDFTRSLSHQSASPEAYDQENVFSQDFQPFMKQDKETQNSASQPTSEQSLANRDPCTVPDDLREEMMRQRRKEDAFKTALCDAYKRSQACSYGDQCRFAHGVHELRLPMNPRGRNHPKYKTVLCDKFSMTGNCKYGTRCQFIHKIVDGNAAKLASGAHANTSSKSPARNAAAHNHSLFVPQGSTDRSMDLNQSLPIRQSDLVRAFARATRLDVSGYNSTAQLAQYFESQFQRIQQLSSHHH

[11] = Vero cell cytotoxicity, dose response, cytotoxicity control for Vif-APOBEC3G degradation inhibitor project, Vero cells (AID 1117358); assay type: functional; conditions: Human immunodeficiency virus 1, Vero
[12] = target: Luciferin 4-monooxygenase (Photinus pyralis, UniProt P08659); assay: firefly luciferase enzyme inhibitors, dose response, biochemical, luminescence (AID 1891)
[13] = target: Ephrin type-A receptor 4 (Mus musculus, UniProt Q03137); assay: inhibitors of EphA4 binding to KYL peptide, primary screen, biochemical, colorimetric, mouse EphA4 (AID 689); assay type: functional
[14] = Luminescence Cell-Based Dose Confirmation HTS to Identify Inhibitors of Platelet Dense Granule Release. [Related pubchem assays: 1663 (Primary HTS), 1678 (Summary of Project)]; assay type: functional
[15] = target: Transitional endoplasmic reticulum ATPase (Homo sapiens, UniProt P55072, C522A); assay: Luminescence counterscreen assay for p97 inhibitors: dose response biochemical high throughput screening assay to identify inhibitors of the C522A mutant p97 ATPase: synthesized compounds. [Related pubchem assays: 1481, 1517, 1551 ]
[16] = target: Transitional endoplasmic reticulum ATPase (Homo sapiens, UniProt P55072); assay: Luminescence dose response biochemical high throughput screening assay for inhibitors of the p97 ATPase: synthesized compounds. [Related pubchem assays: 1481, 1517 ]
[17] = target: Cytochrome P450 2C9 (Homo sapiens, UniProt P11712)
[18] = Counterscreen for activators of the function of SWI/SNF related, matrix associated, actin dependent regulator of chromatin, subfamily a, member 2 (SMARCA2, BRM): Luminescence-based cell-based high throughput dose response assay to identify non-selective compounds using the VP16 reporter assay.; assay type: functional
[19] = Luminescence-based cell-based high throughput dose response assay to identify activators of the DAF-12 from the parasite S. stercoralis (ssDAF-12).; assay type: functional
[20] = target: SWI/SNF-related matrix-associated actin-dependent regulator of chromatin subfamily A member 2 (Homo sapiens, UniProt P51531); assay: Luminescence-based cell-based high throughput dose response assay to identify activators of the function of SWI/SNF related, matrix associated, actin dependent regulator of chromatin, subfamily a, member 2 (SMARCA2, BRM).; assay type: functional
[21] = target: Photoreceptor-specific nuclear receptor (Homo sapiens, UniProt Q9Y5X4); assay type: functional, cell-based;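 also: CHO-S cells with Gal4-NCOR and VP16-NR2E3 two-hybrid luciferase reporter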
[22] = target: Transthyretin (Homo sapiens, UniProt P02766); assay: Luminescence-based cell-based high throughput dose response assay to identify activators of Transthyretin (TTR) transcription.; assay type: functional
[23] = tested on: Vero; assay: cytotoxicity of synthesized analogs in Vero cells, SAR follow-up, cytotoxicity control for West Nile virus antiviral project, cell-based, set II (AID 2402); assay type: functional; conditions: Chlorocebus sabaeus
[24] = target: Voltage-gated inwardly rectifying potassium channel KCNH2 (Homo sapiens, UniProt Q12809); assay: hERG protection from proarrhythmic block, potency, dose response, cell-based, thallium flux (AID 2121); assay type: ADME
[25] = target: NADPH oxidase 1 (Homo sapiens, UniProt Q9Y5S8); assay: Late-stage luminescence-based cell-based dose response assay to identify inhibitors of NADPH oxidase 1 (NOX1): Synthesized analogs 3.; assay type: functional
[26] = target: Signal transducer and activator of transcription 1-alpha/beta (Homo sapiens, UniProt P42224); assay: STAT1 signalling inhibitors, dose response, cell-based, NIH 3T3, luciferase reporter (AID 1396); assay type: functional
[27] = target: RNA-editing ligase 1, mitochondrial (Trypanosoma brucei brucei, UniProt P86926); assay: TbREL1 ligase inhibitors, dose response, biochemical, fluorescence, Trypanosoma brucei (AID 1117295); assay type: functional
[28] = target: Phospholipase D2 (Homo sapiens, UniProt O14939); assay: PLD2 Cellular Concentration Response Study.; assay type: functional
[29] = target: T5, Phospholipase D1 (Homo sapiens, UniProt Q13393); assay: PLD1 Cellular Concentration Response Study.; assay type: functional
T5 sequence (Q13393 whole entry): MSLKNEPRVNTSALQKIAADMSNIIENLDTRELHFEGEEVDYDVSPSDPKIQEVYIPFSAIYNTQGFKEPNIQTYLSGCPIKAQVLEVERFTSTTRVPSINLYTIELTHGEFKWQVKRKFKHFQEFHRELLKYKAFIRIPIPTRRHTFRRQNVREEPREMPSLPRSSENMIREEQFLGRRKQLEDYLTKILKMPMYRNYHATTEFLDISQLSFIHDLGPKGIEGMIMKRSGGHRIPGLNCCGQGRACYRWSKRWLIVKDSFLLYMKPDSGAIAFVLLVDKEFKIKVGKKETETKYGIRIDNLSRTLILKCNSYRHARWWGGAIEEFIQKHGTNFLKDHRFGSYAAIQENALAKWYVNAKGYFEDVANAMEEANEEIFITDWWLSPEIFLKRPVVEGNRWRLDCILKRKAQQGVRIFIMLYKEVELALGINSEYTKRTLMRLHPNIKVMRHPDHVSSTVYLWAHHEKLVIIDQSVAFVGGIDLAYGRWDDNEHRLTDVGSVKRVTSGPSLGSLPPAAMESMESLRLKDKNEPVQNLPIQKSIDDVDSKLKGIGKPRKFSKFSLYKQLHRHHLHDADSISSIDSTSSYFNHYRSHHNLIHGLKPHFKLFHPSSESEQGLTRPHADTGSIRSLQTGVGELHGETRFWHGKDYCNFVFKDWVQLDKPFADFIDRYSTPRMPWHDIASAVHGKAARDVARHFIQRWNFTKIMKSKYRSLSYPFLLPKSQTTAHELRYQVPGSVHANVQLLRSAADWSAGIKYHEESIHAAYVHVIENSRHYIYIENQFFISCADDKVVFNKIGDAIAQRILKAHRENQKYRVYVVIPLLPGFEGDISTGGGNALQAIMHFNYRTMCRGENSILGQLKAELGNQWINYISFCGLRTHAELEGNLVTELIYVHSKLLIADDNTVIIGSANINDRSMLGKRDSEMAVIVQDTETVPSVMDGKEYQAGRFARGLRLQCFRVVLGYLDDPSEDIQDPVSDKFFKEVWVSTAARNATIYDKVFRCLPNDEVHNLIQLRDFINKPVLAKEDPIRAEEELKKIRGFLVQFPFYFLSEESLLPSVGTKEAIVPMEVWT

[30] = target: Metabotropic glutamate receptor 7 (Homo sapiens, UniProt Q14831); assay: mGlu7 positive allosteric modulators, dose response, cell-based, calcium mobilization, Galpha15 (AID 743384); assay type: functional
[31] = cells; conditions: HEK293

Chain of Phospholipase D2 (O14939 whole entry): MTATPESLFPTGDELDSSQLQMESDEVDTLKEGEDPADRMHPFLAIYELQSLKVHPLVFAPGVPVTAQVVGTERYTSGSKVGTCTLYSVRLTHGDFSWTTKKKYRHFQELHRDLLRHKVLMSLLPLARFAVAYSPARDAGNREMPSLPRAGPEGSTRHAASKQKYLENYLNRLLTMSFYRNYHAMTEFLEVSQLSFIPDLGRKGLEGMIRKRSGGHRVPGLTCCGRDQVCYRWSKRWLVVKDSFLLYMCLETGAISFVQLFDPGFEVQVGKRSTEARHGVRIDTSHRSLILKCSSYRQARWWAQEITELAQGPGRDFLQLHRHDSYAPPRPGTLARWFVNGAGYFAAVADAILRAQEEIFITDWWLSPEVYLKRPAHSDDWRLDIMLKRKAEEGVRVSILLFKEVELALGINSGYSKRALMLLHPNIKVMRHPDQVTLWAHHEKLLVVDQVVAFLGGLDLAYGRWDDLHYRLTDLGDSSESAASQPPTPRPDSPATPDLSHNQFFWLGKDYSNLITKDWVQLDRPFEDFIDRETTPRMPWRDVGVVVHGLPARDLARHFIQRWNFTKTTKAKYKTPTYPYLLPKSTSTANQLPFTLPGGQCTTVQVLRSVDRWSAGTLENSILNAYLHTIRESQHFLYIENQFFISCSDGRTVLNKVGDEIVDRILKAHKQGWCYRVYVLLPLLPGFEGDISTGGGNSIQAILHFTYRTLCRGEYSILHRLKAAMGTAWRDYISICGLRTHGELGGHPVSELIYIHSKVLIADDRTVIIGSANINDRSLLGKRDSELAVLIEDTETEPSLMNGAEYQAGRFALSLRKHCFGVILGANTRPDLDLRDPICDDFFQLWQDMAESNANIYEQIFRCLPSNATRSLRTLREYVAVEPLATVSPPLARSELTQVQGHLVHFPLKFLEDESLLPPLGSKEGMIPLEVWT
Chain of RNA-editing ligase 1, mitochondrial (P86926 whole entry): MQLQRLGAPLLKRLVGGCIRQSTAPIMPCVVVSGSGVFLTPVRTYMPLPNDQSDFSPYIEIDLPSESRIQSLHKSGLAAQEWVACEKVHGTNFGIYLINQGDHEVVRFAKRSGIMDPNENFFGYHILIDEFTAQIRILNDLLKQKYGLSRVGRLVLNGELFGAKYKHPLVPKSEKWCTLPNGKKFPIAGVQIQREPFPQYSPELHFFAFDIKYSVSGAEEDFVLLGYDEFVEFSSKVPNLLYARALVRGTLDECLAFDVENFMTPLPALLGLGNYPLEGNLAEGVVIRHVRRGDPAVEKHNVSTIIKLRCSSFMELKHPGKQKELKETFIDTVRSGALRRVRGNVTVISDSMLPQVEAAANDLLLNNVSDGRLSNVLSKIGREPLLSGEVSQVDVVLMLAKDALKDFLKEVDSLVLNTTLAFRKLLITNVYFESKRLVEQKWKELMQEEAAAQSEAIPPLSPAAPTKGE
Chain of Metabotropic glutamate receptor 7 (Q14831 whole entry): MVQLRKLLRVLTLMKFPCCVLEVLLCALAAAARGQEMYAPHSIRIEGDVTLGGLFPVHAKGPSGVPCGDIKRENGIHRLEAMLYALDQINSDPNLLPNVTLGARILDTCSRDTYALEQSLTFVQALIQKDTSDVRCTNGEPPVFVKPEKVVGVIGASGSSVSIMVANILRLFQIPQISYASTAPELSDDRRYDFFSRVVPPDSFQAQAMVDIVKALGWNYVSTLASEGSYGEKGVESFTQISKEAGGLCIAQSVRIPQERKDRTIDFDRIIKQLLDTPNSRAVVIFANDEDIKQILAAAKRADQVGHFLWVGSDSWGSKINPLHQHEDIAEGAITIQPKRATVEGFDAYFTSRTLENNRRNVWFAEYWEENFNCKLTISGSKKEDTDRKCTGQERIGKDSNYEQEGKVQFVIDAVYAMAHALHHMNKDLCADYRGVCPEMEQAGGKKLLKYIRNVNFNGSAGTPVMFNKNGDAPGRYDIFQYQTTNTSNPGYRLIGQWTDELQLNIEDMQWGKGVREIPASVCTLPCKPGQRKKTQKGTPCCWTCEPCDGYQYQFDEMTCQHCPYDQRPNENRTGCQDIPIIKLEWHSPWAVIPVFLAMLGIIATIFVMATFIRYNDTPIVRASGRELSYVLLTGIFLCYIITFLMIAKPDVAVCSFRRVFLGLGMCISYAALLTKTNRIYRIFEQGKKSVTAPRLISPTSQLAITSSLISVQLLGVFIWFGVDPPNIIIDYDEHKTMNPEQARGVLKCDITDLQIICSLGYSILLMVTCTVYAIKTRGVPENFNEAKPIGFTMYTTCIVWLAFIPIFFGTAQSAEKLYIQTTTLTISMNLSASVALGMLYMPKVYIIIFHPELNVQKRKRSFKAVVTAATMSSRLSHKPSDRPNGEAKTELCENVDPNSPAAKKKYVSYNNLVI
Chain of Voltage-gated inwardly rectifying potassium channel KCNH2 (Q12809 whole entry): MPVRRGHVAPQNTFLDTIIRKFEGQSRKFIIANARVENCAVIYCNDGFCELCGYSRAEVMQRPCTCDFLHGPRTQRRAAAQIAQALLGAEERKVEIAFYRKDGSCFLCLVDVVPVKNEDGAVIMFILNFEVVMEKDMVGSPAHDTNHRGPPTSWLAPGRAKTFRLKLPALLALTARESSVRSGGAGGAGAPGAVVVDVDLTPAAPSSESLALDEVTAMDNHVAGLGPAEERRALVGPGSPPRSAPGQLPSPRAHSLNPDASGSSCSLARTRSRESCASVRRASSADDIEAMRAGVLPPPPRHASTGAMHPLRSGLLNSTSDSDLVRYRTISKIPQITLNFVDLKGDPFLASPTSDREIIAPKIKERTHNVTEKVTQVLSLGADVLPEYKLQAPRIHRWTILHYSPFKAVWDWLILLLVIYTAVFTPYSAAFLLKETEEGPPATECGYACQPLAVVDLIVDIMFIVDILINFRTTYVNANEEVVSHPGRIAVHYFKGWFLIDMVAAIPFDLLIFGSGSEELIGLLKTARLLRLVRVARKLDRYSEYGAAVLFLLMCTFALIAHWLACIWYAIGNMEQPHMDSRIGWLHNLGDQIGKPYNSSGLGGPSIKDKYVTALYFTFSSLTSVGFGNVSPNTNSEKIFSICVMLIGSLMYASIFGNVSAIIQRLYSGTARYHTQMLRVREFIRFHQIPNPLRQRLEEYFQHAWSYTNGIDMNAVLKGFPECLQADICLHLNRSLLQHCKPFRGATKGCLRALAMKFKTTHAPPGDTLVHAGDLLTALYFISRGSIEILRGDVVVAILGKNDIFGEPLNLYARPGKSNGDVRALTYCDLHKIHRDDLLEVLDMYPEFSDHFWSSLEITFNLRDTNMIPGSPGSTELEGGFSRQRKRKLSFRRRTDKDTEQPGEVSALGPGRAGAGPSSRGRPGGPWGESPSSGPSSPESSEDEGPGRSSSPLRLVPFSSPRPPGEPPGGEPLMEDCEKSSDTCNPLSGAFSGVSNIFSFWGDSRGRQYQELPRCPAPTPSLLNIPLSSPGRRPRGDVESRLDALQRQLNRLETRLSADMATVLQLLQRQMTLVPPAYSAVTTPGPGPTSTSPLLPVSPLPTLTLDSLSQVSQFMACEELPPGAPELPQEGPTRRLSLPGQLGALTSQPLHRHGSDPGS
Chain of Ephrin type-A receptor 4 (Q03137 whole entry): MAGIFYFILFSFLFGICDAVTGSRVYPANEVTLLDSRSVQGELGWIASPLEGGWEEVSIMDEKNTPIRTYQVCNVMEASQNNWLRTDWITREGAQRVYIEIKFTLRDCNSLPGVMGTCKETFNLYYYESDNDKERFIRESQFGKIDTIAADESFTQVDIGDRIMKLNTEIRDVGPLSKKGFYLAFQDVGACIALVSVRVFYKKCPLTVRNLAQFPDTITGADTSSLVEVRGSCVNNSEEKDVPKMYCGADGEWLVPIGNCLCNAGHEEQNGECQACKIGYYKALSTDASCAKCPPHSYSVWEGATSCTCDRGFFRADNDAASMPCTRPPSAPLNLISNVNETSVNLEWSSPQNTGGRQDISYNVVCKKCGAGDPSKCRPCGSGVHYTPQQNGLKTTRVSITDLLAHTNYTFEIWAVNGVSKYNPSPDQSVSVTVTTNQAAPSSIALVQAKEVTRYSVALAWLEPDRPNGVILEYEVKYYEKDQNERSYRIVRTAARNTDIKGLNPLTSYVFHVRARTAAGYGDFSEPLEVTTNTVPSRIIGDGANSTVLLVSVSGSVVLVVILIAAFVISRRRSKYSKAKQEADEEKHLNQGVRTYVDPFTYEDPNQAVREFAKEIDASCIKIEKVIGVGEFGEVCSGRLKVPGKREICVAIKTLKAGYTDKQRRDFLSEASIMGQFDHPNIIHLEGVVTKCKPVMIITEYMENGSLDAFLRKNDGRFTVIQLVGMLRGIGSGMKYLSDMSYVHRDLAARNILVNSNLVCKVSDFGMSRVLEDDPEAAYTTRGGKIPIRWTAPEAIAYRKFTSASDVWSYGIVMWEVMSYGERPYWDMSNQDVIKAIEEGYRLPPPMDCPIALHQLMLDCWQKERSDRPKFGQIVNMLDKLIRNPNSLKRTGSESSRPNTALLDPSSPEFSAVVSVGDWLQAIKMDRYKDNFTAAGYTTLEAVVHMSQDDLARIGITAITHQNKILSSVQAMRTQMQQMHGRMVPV
Chain of Cytochrome P450 2C9 (P11712 whole entry): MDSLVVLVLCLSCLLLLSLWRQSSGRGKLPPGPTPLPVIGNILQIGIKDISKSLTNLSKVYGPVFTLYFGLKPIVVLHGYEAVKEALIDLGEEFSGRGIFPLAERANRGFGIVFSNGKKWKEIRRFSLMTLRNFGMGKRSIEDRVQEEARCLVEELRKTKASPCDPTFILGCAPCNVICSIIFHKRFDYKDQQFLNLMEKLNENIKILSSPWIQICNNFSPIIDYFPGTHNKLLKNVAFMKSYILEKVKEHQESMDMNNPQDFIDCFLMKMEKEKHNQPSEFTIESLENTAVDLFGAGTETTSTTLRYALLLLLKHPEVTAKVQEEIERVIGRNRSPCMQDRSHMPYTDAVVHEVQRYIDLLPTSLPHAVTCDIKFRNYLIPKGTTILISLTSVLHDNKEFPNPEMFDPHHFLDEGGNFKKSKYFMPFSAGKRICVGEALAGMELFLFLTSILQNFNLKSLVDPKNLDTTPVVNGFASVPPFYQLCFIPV

Cc1cccc(N2C(=O)C(Cl)=C(N3CCN(C)CC3)C2=O)c1
IC50 [1]: 10.8 µM (active)
IC50 [2]: > 100 µM (not active)
IC50 [3]: 12.6 µM (active)

O=C(Nc1cccnc1)Nc1cc(Cl)cc(Cl)c1
EC50 [4]: 85.4 µM (active)
EC50 [5]: > 150 µM (not active)
EC50 [6]: > 1.13 µM (active)
EC50 [7]: 7.83 µM (active)

CN1CC=C2C(C#N)=C(N)C(C#N)(C#N)[C@H](c3cccc(Cl)c3)C2C1 (some centres not stated)
EC50 [8]: 11.6 µM (active)
IC50 [1]: > 100 µM (not active)
IC50 [9]: > 100 µM (not active)
EC50 [10]: 12.5 µM (active)

CCOc1cc(C)c(Cl)cc1S(=O)(=O)NCc1ccco1
CC50 [11]: 27.7 µM (active)

Cc1c(NC(=O)CCN2C(=O)c3ccccc3C2=O)c(=O)n(-c2ccccc2)n1C
EC50 [12]: > 112 µM (not active)
IC50 [13]: > 100 µM (not active)
EC50 [14]: > 112 µM (not active)

CCOc1ccc(-c2csc(Nc3ccc(C#N)cc3)n2)cc1
IC50 [15]: > 50 µM (not active)
IC50 [16]: > 50 µM (not active)

Cc1cnc(NC(=O)CCCc2nc3ccccc3s2)s1
AC50 [17]: 5.62 µM (inconclusive)
EC50 [18]: > 91.2 µM (inactive)
IC50 [19]: > 67.5 µM (inactive)
EC50 [20]: > 91.2 µM (inactive)
IC50 [21]: 0.563 µM (active)
EC50 [22]: > 167 µM (inactive)

O=c1c2cc(I)ccc2nc2n1CCC2
CC50 [23]: > 100 µM (active)

CCc1nnc(NC(=O)CSc2nc(-c3ccccc3)cc(-c3ccc(OC)cc3)c2C#N)s1
EC50 [24]: 1.31 µM (active)

CN1c2ccc(Br)cc2Sc2cc(C(=O)c3ccccc3)ccc21
IC50 [25]: > 20 µM (not active)

Cc1ccc(C2=NN=C(c3ccncc3)c3ccc4ccccc4c3N2)cc1
IC50 [26]: 3.52 µM (active)

COC(=O)C1=C(C)N(Cc2cccc(C(F)(F)F)c2)C(NCc2ccc(OC)cc2)=NC1c1ccc(F)cc1 (configuration not stated)
IC50 [27]: > 96.6 µM (inactive)

O=C(NCCN1CCC2(CC1)C(=O)NCN2Cc1ccccc1Cl)c1ccc2ccccc2c1
IC50 [28]: 0.11 µM (active)
IC50 [29]: 2.3 µM (active)

COC(=O)c1ccc(-n2c(C)cc(C(=O)CSCc3ccc(OC)cc3)c2C)cc1
EC50 [30]: 1 µM (active)

CC(C)Oc1cccc(OCCn2cnc3ccccc32)c1
AC50 [31]: > 52 µM (inactive)
